Assays:
[1] = target: T1, human vasopressin V1a receptor (Homo sapiens, UniProt P37288); test: Human vasopressin V1a receptor binding assay; conditions: 1321N1 cell membranes, [3H]vasopressin; read-out: Ki (nM) on hV1a cell line
Procedure, shortened: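 Radioligand competition on membranes from cells expressing human V1a receptor; incubation 60 minutes at 27° C., non-specific binding with 1.2×10^−6 M unlabeled (Arg^8)-vasopressin, filtration separation. Ki by Cheng-Prusoff using Scatchard-derived KD, from at least two independent experiments.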

[2] = target: T1, human vasopressin V1a receptor; test: Functional assay on human vasopressin V1a receptor expressing cell line (intracellular Ca2+ fluorescence); type: cell-based; conditions: 1321N1 cells, (Arg8)-vasopressin at EC80; read-out: IC50 (nM) on hV1a cell line

T1 sequence (P37288 whole entry): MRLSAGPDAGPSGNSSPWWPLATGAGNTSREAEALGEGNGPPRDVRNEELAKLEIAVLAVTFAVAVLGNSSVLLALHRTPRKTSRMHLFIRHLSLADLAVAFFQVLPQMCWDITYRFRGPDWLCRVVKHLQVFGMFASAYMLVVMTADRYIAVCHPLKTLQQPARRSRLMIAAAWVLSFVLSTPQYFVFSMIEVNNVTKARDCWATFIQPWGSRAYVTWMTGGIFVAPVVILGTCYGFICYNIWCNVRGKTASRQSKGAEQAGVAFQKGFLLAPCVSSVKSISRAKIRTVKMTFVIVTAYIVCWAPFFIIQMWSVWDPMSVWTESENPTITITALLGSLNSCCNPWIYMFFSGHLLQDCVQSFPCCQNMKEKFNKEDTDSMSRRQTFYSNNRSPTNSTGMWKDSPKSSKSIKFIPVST

| SMILES | Ki [1] | IC50 [2] |
| --- | --- | --- |
| N[C@@H]1Cc2cc(Cl)ccc2-n2c(nnc2[C@H]2CC[C@H](Oc3ccccn3)CC2)C1 [Example 8, (5R)-8-chloro-1-[trans-4-(pyridin-2-yloxy)cyclohexyl]-5,6-dihydro-4H-[1,2,4]triazolo[4,3-a][1]benzazepine-5-amine] | 1.3 nM | 6.8 nM |
| CC(=O)NC1Cc2cc(Cl)ccc2-n2c(nnc2[C@H]2CC[C@H](Oc3ccccn3)CC2)C1 (stereo partly drawn) [Example 9, N-{8-chloro-1-[trans-4-(pyridin-2-yloxy)cyclohexyl]-5,6-dihydro-4H-[1,2,4]triazolo[4,3-a][1]benzazepin-5-yl}acetamide] | 0.8 nM | 3 nM |
| O=C1Cc2cc(Cl)ccc2-n2c(nnc2[C@H]2CC[C@H](Oc3ccccn3)CC2)C1 [Example 54, 8-chloro-1-[trans-4-(pyrin-2-yloxy)cyclohexyl]-4H-[1,2,4]triazolo[4,3-a][1]benzazepin-5(6H)-one] | 0.6 nM | 1.2 nM |
| OC1Cc2cc(Cl)ccc2-n2c(nnc2[C@H]2CC[C@H](Oc3ccccn3)CC2)C1 (stereo partly drawn) [Example 55, 8-chloro-1-[trans-4-(pyridin-2-yloxy)cyclohexyl]-5,6-dihydro-4H-[1,2,4]triazolo[4,3-a][1]benzazepin-5-ol] | 0.3 nM | 1.1 nM |
| O[C@@H]1Cc2cc(Cl)ccc2-n2c(nnc2[C@H]2CC[C@H](Oc3ccccn3)CC2)C1 [Example 57, (5R)-8-chloro-1-[trans-4-(pyridin-2-yloxy)cyclohexyl]-5,6-dihydro-4H-[1,2,4]triazolo[4,3-a][1]benzazepin-5-ol] | 0.3 nM | 1.8 nM |
| Brc1ccc2c(c1)CC1(Cc3nnc([C@H]4CC[C@H](Oc5ccccn5)CC4)n3-2)OCCO1 [Example 62, 8′-bromo-1′-[trans-4-(pyridin-2-yloxy)cyclohexyl]-4′H,6′H-spiro[1,3-dioxolane-2,5′ [1,2,4]triazolo[4,3-a][1]benzazepine]] | 0.2 nM | 1.1 nM |
| c1ccc(O[C@H]2CC[C@H](c3nnc4n3-c3ccccc3CC3(C4)OCCO3)CC2)nc1 [Example 63, 1′-[trans-4-(pyridin-2-yloxy)cyclohexyl]-4′H,6′H-spiro[1,3-dioxolane-2,5′-[1,2,4]triazolo[4,3-a][1]benzazepine]] | 0.3 nM | 1.4 nM |

Source: patent publication US11298363B2, “Triazolobenzazepines as vasopressin V1a receptor antagonists” (RICHTER GEDEON NYRT., priority 2017, dated 2022)
